Source: patent US6846845B2, “Heat shock protein inducer” (Eisai Co., Ltd., priority 2002, dated 2005)

Legend:
Assay type in all cases: in vivo, rat
thioredoxin = experiment: Thioredoxin induction in the heart after oral administration (Western blotting); settings: oral 200 mg/kg, 24 hours after administration, FIG. 4(B)
Text: Monoclonal IgG antibody cross-reactive to HSP70, HSP60 and HSP27 antibodies was purchased from Stressgen Biotechnologies Corporation ([…], Canada). Primary antibodies of nitric oxide synthase (NOS) or in other words inducible NOS (iNOS), endothelial NOS (eNOS) and neuronal NOS (nNOS) were purchased from Transduction Laboratories (Lexington, Ky.). The primary antibody of thioredoxin was kindly provided by Professor Yodoi of Kyoto University.
(§1) An emulsion of 100% by weight of geranylgeranylacetone (GGA) with 5% by weight of gum arabic and 0.008% by weight of tocopherol was given orally to the rats described above. The oral dosages were 50 mg/kg, 100 mg/kg, 200 mg/kg and 400 mg/kg (GGA groups). […] The vehicle was administered orally to the Control Group.
Next, the hearts were removed from the killed rats and frozen in liquid nitrogen. […]
The total protein concentration of the myocardium was quantified by the Bradford method (Bradford M M. A rapid and sensitive method for quantitation of microgram quantities of protein utilizing the principle of protein-dye binding. Anal Biochem 1976; 72:248-254). […] The proteins were detected by exposing the ECL cells with Hyperfilm (Amersham Pharmacia, Buckinghamshire, UK). Based on this, the amount of proteins on the immunoblots was quantified using National Institutes of Health (NIH) imaging software. […]

[1] = Observation of abnormalities (side-effects) during oral administration; settings: rats, oral 50, 100, 200 and 400 mg/kg
Protocol: as §1

isolated perfused heart = experiment: Isolated perfused heart experiments (Langendorff, 20 min no-flow global ischemia, 30 min reperfusion), Example 2
Protocol: Male Sprague-Dawley rats (220-250 g) were used. GGA, as an emulsion with 5% gum arabic and 0.008% tocopherol, was given orally at a dose of 200 mg/kg. Rats were classified into 4 groups. FIG. 7 is a diagrammatic representation of experimental protocol. […] Twenty-four hours after oral administration of GGA or vehicle, rats were anesthetized (sodium pentobarbital, 50 mg/kg IP) and heparinized (500 IU/kg IP). Hearts were excised, immediately frozen in liquid nitrogen, and stored at −70° C. until use for Western blot analysis (n=4 for each group). To examine the cardiac function during ischemia and reperfusion, hearts of each group were prepared for isolated perfused experiments using Langendorff apparatus (n=7-9 for each group, FIG. 7).
Twenty-four hours after administration-of 200 mg/kg of GGA or vehicle, rats of 4 groups were heparinized (500 IU/kg, IP) and anesthetized with sodium pentobarbital (50 mg/kg, IP). Each heart was isolated and perfused retrogradely using the Langendorff method with Krebs-Henseleit buffer (pH 7.4, [in mM] 118 NaCl, 4.7 KCl, 2.5 CaCl2, 1.2 MgSO4, 1.2 KH2PO4, 25.0 Na2HCO3, 11.0 glucose) equilibrated with 95% O2-5% CO2 gas mixture at 36.5° C. at a constant pressure of 75 mm Hg. A water-filled latex balloon was inserted through the mitral orifice into the left ventricle (LV) and the LV end-diastolic pressure (LVEDP) was adjusted to 0-5 mm Hg. During the initial 10 min of constant pressure perfusion, the perfusion flow rate was determined for each heart, which was then perfused at a determined perfusion rate using a microtube pump while the heart was covered with water-jacketed glassware and the relative humidity maintained at 90% or more. Normothermic no-flow global ischemia was initiated for 20 min, followed by reperfusion for 30 min. The coronary effluent during the 30 min of reperfusion period was collected for measurement of creatine kinase content (released CK).
LV pressure was monitored using a pressure transducer to obtain the peak positive and negative first derivatives of LV pressure (dP/dtmax and dP/dtmin). […] Coronary perfusion pressure (CPP) was defined as the hydraulic pressure measured at the level of aortic cannulation. LV pressure, CPP and electrocardiogram were continuously recorded on a polygraph recorder (WS-681G, Nihon Kohden) and stored on a PCM data recorder (RD-111T, TEAC) for later analysis.
Data are expressed as mean ±SEM. Serial changes in LVDP, LVEDP, CPP, and dP/dt were analyzed by two-way analysis of variance (ANOVA) followed by the Bonferroni/Dunn test, unless otherwise specified. Comparisons among groups with respect to the hemodynamic parameters at baseline and the ratio of released CK to ventricular weight were analyzed by one-way ANOVA followed by the Bonferroni/Dunn test. […]

CC(=O)CCC=C(C)CCC=C(C)CCC=C(C)CCC=C(C)C [GGA, 6, 10, 14, 18-tetramethyl-5,9, 13, 17-nonadecatetraen-2-one]
thioredoxin induction in the heart (thioredoxin): not induced | abnormalities (side-effects) during administration [1]: No particular abnormalities (side-effects) were observed | released creatine kinase (CK) relative to ventricular weight (isolated perfused heart; 30-min reperfusion period after 20 min ischemia, FIG. 12): lower | recovery of LVDP, LVEDP and dP/dt on reperfusion versus CNT group (isolated perfused heart; 20 min no-flow global ischemia, 30 min reperfusion, FIG. 11): greater
